Key:
[1] = target: T1, Amine oxidase [flavin-containing] A (Homo sapiens, UniProt P21397); format: functional
T1 sequence (P21397 whole entry): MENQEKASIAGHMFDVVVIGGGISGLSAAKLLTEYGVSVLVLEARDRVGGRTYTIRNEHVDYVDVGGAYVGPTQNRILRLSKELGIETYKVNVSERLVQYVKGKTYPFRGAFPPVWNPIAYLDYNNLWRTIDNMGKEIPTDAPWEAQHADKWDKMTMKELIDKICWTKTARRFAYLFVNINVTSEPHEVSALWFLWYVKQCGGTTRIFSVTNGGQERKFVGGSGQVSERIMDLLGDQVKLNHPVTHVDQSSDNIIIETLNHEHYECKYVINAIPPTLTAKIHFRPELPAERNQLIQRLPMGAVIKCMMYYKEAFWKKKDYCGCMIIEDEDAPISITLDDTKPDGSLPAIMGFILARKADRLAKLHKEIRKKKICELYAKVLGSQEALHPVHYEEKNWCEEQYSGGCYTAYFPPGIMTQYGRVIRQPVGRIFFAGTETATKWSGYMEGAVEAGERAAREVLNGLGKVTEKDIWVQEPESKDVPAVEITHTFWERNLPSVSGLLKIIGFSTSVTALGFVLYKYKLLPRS

[2] = target: Muscarinic acetylcholine receptor M3 (Homo sapiens, UniProt P20309)
Chain of Muscarinic acetylcholine receptor M3 (P20309 whole entry): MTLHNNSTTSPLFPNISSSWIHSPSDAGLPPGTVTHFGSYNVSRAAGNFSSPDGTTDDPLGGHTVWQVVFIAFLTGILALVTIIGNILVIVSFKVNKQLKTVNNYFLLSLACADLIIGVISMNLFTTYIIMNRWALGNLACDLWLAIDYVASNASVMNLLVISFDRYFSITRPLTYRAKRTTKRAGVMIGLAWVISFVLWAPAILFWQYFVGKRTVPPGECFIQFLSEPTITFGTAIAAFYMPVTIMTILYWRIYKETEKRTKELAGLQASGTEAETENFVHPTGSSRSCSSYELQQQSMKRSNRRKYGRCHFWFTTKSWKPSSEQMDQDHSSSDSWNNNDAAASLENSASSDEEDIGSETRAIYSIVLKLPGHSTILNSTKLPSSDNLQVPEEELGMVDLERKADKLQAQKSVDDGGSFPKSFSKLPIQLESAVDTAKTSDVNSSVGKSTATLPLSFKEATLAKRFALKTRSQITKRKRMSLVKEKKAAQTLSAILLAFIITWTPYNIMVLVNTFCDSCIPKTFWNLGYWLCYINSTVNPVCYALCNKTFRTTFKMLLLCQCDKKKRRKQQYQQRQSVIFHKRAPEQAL

Motilin receptor = Motilin receptor (Homo sapiens, UniProt O43193)
Chain of Motilin receptor (O43193 whole entry): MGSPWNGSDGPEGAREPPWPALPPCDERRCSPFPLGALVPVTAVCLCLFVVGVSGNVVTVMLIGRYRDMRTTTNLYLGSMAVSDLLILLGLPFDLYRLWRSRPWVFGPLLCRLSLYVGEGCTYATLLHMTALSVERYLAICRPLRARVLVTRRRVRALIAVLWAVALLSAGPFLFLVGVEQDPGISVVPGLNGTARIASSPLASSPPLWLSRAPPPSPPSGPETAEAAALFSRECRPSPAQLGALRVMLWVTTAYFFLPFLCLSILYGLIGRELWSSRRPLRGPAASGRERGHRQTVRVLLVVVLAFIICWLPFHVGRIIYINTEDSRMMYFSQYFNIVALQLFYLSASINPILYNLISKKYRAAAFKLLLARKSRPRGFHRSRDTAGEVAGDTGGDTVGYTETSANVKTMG

D(3) dopamine receptor = D(3) dopamine receptor (Homo sapiens, UniProt P35462)
Chain of D(3) dopamine receptor (P35462 whole entry): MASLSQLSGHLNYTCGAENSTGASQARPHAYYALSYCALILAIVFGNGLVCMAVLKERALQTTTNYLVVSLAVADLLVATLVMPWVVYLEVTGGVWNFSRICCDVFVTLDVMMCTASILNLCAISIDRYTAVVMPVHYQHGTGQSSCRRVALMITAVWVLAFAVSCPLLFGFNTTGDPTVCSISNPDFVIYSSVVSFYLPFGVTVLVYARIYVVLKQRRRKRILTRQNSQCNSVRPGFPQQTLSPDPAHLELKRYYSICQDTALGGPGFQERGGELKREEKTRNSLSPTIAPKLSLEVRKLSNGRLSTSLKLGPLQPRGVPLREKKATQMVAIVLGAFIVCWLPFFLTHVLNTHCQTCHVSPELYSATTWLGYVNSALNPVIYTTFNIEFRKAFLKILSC

[3] = target: Delta-type opioid receptor (Homo sapiens, UniProt P41143)
Chain of Delta-type opioid receptor (P41143 whole entry): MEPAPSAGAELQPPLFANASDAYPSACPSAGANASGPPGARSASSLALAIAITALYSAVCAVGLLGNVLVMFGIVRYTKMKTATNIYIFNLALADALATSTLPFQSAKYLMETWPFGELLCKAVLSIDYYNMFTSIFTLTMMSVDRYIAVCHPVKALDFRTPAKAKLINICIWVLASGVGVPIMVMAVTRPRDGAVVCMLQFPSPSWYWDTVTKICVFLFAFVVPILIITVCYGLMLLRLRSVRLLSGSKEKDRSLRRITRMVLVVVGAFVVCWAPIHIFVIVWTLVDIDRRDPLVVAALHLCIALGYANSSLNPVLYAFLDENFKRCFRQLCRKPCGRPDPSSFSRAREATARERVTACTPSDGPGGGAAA

Estrogen receptor = target: T2, Estrogen receptor (Homo sapiens, UniProt P03372)
T2 sequence (P03372 whole entry): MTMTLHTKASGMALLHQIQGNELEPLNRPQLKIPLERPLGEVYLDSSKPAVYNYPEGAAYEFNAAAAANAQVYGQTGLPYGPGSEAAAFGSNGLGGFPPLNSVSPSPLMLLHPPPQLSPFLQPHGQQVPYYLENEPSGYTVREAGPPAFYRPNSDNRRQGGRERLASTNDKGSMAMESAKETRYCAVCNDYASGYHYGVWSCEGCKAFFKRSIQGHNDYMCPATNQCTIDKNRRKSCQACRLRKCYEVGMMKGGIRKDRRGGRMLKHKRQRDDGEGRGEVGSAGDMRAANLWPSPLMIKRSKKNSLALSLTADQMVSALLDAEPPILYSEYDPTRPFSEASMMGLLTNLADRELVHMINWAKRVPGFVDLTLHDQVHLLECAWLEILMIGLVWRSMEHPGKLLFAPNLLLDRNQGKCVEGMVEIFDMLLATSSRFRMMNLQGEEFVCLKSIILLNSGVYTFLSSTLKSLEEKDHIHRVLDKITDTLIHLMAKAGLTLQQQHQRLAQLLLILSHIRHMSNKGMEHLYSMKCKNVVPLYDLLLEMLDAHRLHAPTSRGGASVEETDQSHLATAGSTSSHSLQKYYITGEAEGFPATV

[4] = target: T3, Alpha-2B adrenergic receptor (Homo sapiens, UniProt P18089)
T3 sequence (P18089 whole entry): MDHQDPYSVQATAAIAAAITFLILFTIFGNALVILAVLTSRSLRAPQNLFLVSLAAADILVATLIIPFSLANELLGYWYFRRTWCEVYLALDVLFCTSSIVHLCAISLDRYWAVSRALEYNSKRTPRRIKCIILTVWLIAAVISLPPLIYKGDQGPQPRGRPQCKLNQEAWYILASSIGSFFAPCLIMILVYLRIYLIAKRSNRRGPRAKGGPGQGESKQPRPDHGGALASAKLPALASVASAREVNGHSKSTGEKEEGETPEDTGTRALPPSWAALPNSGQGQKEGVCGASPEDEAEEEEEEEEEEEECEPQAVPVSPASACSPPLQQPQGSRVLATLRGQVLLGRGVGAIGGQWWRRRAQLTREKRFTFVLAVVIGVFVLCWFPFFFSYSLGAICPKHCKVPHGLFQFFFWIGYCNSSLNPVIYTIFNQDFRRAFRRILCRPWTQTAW

Adenosine receptor A1 = target: T4, Adenosine receptor A1 (Homo sapiens, UniProt P30542)
T4 sequence (P30542 whole entry): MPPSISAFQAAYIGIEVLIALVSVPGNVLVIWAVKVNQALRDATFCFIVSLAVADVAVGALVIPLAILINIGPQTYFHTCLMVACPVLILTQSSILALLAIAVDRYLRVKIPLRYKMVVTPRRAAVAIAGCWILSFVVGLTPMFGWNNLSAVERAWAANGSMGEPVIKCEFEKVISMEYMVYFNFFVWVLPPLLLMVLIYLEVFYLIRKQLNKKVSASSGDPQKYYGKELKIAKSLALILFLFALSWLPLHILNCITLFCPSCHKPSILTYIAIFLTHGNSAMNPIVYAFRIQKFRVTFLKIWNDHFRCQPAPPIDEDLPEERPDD

Histamine H3 receptor = Histamine H3 receptor (Homo sapiens, UniProt Q9Y5N1)
Chain of Histamine H3 receptor (Q9Y5N1 whole entry): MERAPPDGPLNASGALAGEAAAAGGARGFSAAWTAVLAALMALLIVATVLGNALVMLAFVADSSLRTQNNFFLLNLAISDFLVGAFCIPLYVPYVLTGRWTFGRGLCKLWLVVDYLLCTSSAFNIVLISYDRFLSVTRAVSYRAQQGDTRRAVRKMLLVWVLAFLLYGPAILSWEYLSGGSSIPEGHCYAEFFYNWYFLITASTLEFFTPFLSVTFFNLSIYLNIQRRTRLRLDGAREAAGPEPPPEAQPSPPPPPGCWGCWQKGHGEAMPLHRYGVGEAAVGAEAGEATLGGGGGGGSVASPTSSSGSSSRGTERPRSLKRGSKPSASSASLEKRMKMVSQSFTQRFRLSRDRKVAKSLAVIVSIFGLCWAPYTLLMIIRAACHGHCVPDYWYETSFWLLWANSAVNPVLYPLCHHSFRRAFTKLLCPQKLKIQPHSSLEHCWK

[5] = target: T5, 5-hydroxytryptamine receptor 3A (Homo sapiens, UniProt P46098); format: functional
T5 sequence (P46098 whole entry): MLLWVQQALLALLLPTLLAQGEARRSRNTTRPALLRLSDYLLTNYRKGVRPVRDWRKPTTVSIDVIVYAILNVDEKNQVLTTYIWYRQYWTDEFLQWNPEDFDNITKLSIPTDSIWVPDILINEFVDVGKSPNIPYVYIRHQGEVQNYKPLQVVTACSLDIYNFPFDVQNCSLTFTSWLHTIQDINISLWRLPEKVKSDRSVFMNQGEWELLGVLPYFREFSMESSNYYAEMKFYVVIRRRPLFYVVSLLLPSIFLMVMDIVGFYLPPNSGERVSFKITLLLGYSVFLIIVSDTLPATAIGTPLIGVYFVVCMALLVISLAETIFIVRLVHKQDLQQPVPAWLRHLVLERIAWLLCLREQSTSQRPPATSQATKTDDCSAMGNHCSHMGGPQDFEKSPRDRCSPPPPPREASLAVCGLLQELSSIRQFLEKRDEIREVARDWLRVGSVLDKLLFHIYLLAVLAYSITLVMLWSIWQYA

[6] = target: Neuronal acetylcholine receptor subunit alpha-4 (Homo sapiens, UniProt P43681)
Chain of Neuronal acetylcholine receptor subunit alpha-4 (P43681 whole entry): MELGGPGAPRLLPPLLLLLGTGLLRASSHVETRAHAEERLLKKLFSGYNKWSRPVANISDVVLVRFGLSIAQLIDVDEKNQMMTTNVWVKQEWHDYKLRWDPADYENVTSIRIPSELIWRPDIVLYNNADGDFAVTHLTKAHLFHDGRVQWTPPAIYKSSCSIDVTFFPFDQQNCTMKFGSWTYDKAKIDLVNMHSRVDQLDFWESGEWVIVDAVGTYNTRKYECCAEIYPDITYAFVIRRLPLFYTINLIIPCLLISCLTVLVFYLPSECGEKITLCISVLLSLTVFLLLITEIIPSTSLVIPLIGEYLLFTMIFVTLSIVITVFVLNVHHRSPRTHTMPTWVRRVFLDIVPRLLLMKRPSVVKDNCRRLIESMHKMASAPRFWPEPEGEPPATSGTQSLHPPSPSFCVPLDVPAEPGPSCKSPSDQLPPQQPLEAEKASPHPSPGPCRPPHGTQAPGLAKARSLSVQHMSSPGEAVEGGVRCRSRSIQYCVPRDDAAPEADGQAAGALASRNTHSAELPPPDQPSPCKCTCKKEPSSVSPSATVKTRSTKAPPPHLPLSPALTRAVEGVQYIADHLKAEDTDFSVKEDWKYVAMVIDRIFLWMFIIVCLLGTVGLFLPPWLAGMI
Note: assay procedure not described here.

Structure (SMILES)	AC50 [1] [µM]	AC50 [2] [µM]	AC50 (Motilin receptor) [µM]	AC50 (D(3) dopamine receptor) [µM]	AC50 [3] [µM]	AC50 (Estrogen receptor) [µM]	AC50 [4] [µM]	AC50 (Adenosine receptor A1) [µM]	AC50 (Histamine H3 receptor) [µM]	AC50 [5] [µM]	AC50 [6] [µM]
N=C(N)NCCCCCCC(=O)NC(O)C(=O)NCCCCNCCCN (stereo unspecified)	> 30	> 30	> 30	> 30	> 30	> 30	> 30	> 30	> 30	> 30	> 30
CC(=O)OCC(=O)[C@@]1(O)CC[C@H]2[C@@H]3CCC4=CC(=O)CC[C@]4(C)C3=CC[C@@]21C [ANECORTAVE ACETATE]	> 10	> 30	> 10	> 30	> 30	> 30	> 10	> 10	> 10	> 30	> 10
CCN(CC)C(=O)C1CN2CCc3cc(OC)c(OC)cc3C2CC1OC(C)=O (stereo unspecified) [BENZQUINAMIDE]	> 30	> 30	> 30	14.4	> 30	> 30	1.03	> 30	> 30	> 30	> 30
CCCCC1(CC)C(=O)NC(=O)NC1=O [BUTETHAL]	> 30	> 30	> 30	> 30	> 30	> 30	> 30	> 30	> 30	> 30	> 30
CCOC(=O)NNc1ccc(N(CC)CC(C)O)nn1 (stereo unspecified) [CADRALAZINE]	> 30	> 30	> 30	> 30	> 30	> 30	> 30	> 30	> 30	> 30	> 30
CCCC(C)(COC(N)=O)COC(=O)NC(C)C (stereo unspecified) [CARISOPRODOL]	> 10	> 10	> 10	> 10	> 30	> 30	> 10	> 30	> 10	> 30	> 10
CO[C@@]1(NC(=O)Cc2cccs2)C(=O)N2C(C(=O)O)=C(COC(N)=O)CS[C@@H]21 [CEFOXITIN]	> 30	> 30	> 30	> 30	> 30	> 30	> 30	> 30	> 30	> 30	> 30
CCN(CC)CCOC(=O)c1ccc(N)cc1Cl [CHLOROPROCAINE]	7.9	18	> 30	> 30	> 30	> 30	> 30	> 30	4	11	25
CCC(C)(Oc1ccc(C2(c3ccc(OC(C)(CC)C(=O)O)cc3)CCCCC2)cc1)C(=O)O (stereo unspecified) [CLINOFIBRATE]	> 30	> 30	> 30	> 30	> 30	> 30	> 30	> 30	> 30	> 30	> 30
CCCCC[C@H](O)/C=C/[C@H]1[C@H](O)CC(=O)[C@@H]1C/C=C\CCCC(=O)O [DINOPROSTONE]	> 30	> 30	> 30	> 30	> 30	23	> 30	> 30	> 30	> 30	> 30
CC(C)c1cc2c(cc1S(=O)(=O)O)[C@@]1(C)CCC[C@@](C)(C(=O)O)[C@@H]1CC2 [ECABET]	> 30	> 30	> 30	> 30	> 30	> 30	> 30	> 30	> 30	> 30	> 30
COC(=O)N[C@@H](C)CNc1nccc(-c2cn(C(C)C)nc2-c2cc(Cl)cc(NS(C)(=O)=O)c2F)n1 [ENCORAFENIB]	> 30	8.7	> 30	> 30	> 30	> 30	> 30	> 30	> 30	> 30	> 30
Clc1ccc2c(c1)C(c1ccccc1)=NCc1nncn1-2 [ESTAZOLAM]	> 10	> 30	> 10	> 30	> 30	> 30	> 10	> 30	> 10	> 30	> 10
CCCN(CC)C(CC)C(=O)Nc1c(C)cccc1C (stereo unspecified) [ETIDOCAINE]	> 30	> 30	> 30	> 30	> 30	> 30	> 30	> 30	> 30	> 30	> 30
Clc1ccc(C(Cn2ccnc2)OCc2ccc(Sc3ccccc3)cc2)c(Cl)c1 (stereo unspecified) [FENTICONAZOLE]	> 30	21	23	30	> 30	> 10	12	> 30	> 30	> 30	> 10
Nc1nc(F)nc2c1ncn2[C@@H]1O[C@H](COP(=O)(O)O)[C@@H](O)[C@@H]1O [FLUDARABINE PHOSPHATE]	> 30	> 30	> 30	> 30	> 30	> 30	> 30	> 30	> 30	> 30	> 30
